Laboratory results reported in patent US20230265103A1 (TME Therapeutics LLC, priority 2021, published 2023).

Key:
[1] = test system: SARS-CoV-2 (strain USA-WA1/2020); assay: SARS-CoV-2 antiviral assay (inhibition of CPE, neutral red); assay type: cell-based; details: SARS-COV2; for EC50: Severe acute respiratory syndrome coronavirus 2, inhibition of CPE by 50%
in vitro [2] = details: dog
[3] = test system: HuT-78 (T cell lymphoma) cells; assay: Anti-proliferative activity, HuT-78 (CellTiter-Glo); details: Homo sapiens, HuT78, 144 h
in vitro [4] = details: African green monkey
[5] = test system: Marburg virus (Angola strain) glycoprotein (rVSV-MARV-GP); assay: organism not typed; assay type: cell-based
PIKFYVE = target: T1, PIKFYVE (Homo sapiens, UniProt Q9Y2I7); assay: KINOMEscan Kinase Assay (Eurofins), PIKFYVE inhibitory activity; assay type: binding; details: for IC50: KINOMEscan
T1 construct: purchased Eurofins (KINOMEscan); host or cells: E. coli BL21-derived (T7 phage display) or HEK-293

[6] = test system: JJN3 (multiple myeloma) cells; assay: Anti-proliferative activity, JJN3 (CellTiter-Glo); details: Homo sapiens, JJN-3, 144 h
[7] = test system: SARS-CoV-2 (Delta strain B.1.617); assay: SARS-CoV-2 Delta antiviral assay (inhibition of CPE, neutral red); assay type: cell-based; details: SARS-COV2 (Delta)
[8] = test system: influenza A strain California/07/09 (H1N1)pdm09; assay: Influenza A antiviral assay (inhibition of CPE, neutral red); assay type: cell-based; details: for EC50: Influenza A virus, H1N1
[9] = test system: Ebola virus (Mayinga strain) glycoprotein (rVSV-EBOV-GP); assay: microbe, parasite or virus in culture; assay type: cell-based

T1 sequence (Q9Y2I7 whole entry): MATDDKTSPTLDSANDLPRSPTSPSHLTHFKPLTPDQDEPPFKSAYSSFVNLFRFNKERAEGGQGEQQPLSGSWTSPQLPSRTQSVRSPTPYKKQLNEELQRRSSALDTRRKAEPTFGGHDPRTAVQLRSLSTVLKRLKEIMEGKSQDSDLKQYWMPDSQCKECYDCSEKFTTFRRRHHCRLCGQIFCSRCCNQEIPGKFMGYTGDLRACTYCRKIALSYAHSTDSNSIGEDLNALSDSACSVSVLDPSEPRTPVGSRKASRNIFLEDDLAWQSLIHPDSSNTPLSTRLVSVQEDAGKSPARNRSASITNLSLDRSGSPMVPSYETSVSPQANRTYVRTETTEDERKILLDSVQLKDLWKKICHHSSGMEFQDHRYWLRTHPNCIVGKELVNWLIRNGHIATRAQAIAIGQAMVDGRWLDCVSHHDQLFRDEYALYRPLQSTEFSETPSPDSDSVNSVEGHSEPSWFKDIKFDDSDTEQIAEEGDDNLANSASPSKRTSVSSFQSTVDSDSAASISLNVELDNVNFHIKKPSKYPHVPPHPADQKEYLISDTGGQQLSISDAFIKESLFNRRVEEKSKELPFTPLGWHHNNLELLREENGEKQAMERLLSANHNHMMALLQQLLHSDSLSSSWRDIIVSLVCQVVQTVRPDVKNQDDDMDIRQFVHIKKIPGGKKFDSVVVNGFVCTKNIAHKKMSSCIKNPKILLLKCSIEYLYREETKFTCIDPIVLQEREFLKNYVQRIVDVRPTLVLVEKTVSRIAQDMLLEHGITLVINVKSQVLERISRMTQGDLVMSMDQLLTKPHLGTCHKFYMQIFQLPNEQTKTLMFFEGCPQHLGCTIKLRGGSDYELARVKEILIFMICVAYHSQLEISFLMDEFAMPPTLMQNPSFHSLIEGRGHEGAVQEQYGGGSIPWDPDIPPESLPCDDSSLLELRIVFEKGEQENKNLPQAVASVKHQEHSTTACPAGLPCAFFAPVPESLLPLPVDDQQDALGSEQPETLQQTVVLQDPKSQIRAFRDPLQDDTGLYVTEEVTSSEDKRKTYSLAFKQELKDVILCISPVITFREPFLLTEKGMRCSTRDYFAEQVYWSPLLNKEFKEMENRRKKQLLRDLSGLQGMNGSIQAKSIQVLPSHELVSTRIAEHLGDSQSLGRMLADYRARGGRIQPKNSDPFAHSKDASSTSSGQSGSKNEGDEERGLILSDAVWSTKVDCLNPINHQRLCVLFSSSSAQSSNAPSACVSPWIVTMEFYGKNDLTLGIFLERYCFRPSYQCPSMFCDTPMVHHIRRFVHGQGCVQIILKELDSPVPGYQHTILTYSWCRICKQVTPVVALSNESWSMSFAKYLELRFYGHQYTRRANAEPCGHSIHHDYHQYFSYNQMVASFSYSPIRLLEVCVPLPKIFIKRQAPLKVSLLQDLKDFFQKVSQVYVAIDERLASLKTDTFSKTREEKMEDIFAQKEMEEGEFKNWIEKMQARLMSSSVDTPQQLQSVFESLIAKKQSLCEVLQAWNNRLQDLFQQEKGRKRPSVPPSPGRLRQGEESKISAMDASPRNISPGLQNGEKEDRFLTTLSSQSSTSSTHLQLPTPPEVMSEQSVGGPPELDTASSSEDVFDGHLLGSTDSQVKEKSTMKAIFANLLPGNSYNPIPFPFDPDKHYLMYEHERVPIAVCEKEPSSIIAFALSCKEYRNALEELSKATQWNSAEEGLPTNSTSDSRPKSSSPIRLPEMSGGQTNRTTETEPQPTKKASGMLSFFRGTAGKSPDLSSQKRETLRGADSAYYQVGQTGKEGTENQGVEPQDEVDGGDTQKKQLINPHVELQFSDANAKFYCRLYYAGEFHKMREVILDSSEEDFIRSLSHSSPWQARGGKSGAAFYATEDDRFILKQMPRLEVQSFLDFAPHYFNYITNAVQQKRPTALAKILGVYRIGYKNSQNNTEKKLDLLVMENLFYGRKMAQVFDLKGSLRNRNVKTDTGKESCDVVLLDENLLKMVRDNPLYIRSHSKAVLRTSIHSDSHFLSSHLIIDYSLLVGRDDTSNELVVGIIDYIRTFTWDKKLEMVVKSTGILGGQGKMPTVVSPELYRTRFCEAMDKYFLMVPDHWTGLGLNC

CCC(CC)COC(=O)[C@H](C)N[P@](=O)(OC[C@H]1O[C@@](C#N)(c2ccc3c(N)ncnn23)[C@H](O)[C@@H]1O)Oc1ccccc1 [remdesivir, reference compound]
EC50 [1]: 5.6 µM | CC50 (in vitro [2]): > 100 µM

Cc1cccc(-c2ccn(-c3nc(N4CCOCC4)c4sc(CN5CCN(S(C)(=O)=O)CC5)cc4n3)n2)c1 [Ex. 2, 4-(6-((4-(methylsulfonyl)piperazin-1-yl)methyl)-2-(3-(m-tolyl)-1H-pyrazol-1-yl)thieno[3,2-d]pyrimidin-4-yl)morpholine]
EC50 [3]: < 250 nM | CC50 (in vitro [4]): > 3 mM | Selectivity Index [5]: >15000 | EC50 ([5]; Vero): < 200 nM | IC50 (PIKFYVE): < 1 nM | EC50 [6]: < 50 nM | Selectivity Index ([1]; CC50 divided by EC50): >150 | EC50 [1]: < 1 µM | Selectivity Index ([7]; CC50 divided by EC50): >1000 | EC50 ([7]; Severe acute respiratory syndrome coronavirus 2): < 3000 nM | EC50 [8]: < 1 µM | Selectivity Index ([8]; Influenza A, CC50 divided by EC50): >150 | Selectivity Index [9]: >6000 | EC50 ([9]; Zaire ebolavirus, Vero): < 500 nM

NC(=O)c1ncn([C@@H]2O[C@H](CO)[C@@H](O)[C@H]2O)n1 [ribavirin, reference compound]
EC50 [8]: 3.8 µM | CC50 (in vitro [2]): > 1000 µM

COC(C)(C)c1sc2c(N3CCOCC3)nc(-n3ccc(-c4cccc(C)c4)n3)nc2c1C [Ex. 64, 4-(6-(2-methoxypropan-2-yl)-7-methyl-2-(3-(m-tolyl)-1H-pyrazol-1-yl)thieno[3,2-d]pyrimidin-4-yl)morpholine]
IC50 (PIKFYVE): 1 to 10 nM

Cc1cccc(-c2ccn(-c3cc(N4CCOCC4)c4sc(CN5CCOCC5)c(C)c4n3)n2)c1 [Ex. 167, 4-(3-Methyl-2-(morpholinomethyl)-5-(3-(m-tolyl)-1H-pyrazol-1-yl)thieno[3,2-b]pyridin-7-yl)morpholine]
inhibition at 0.003 µM (PIKFYVE; @ 3 nM): 0%

Cc1cccc(-c2ccn(-c3nc(N4CCOCC4)c4sc(CN5CCC6(OCCO6)C(F)C5)cc4n3)n2)c1 (stereo not shown) [Ex. 50, 6-fluoro-8-((4-morpholino-2-(3-(m-tolyl)-1H-pyrazol-1-yl)thieno[3,2-d]pyrimidin-6-yl)methyl)-1,4-dioxa-8-azaspiro[4.5]decane]
IC50 (PIKFYVE): 1 to 10 nM

Cc1cccc(-c2ccn(-c3cc(N4CCOCC4)c4nc(CN5CC(N(C)C)C5)[nH]c4n3)n2)c1 [Ex. 48, N,N-dimethyl-1-((7-morpholino-5-(3-(m-tolyl)-1H-pyrazol-1-yl)-3H-imidazo[4,5-b]pyridin-2-yl)methyl)azetidin-3-amine]
IC50 (PIKFYVE): 1 to 10 nM

Cc1cccc(-c2ccn(-c3nc(N4CCOCC4)c4nc(CN5CCC(N(C)S(C)(=O)=O)CC5)[nH]c4n3)n2)c1 [Ex. 11, N-methyl-N-(1-((6-morpholino-2-(3-(m-tolyl)-1H-pyrazol-1-yl)-9H-purin-8-yl)methyl)piperidin-4-yl)methanesulfonamide]
IC50 (PIKFYVE): 1 to 10 nM

Cc1cccc(-c2ccn(-c3nc(N4CCOCC4)c4nc(C(C)N5CCN(S(C)(=O)=O)CC5)sc4n3)n2)c1 (stereo not shown) [Ex. 12, 4-(2-(1-(4-(methylsulfonyl)piperazin-1-yl)ethyl)-5-(3-(m-tolyl)-1H-pyrazol-1-yl)thiazolo[5,4-d]pyrimidin-7-yl)morpholine]
IC50 (PIKFYVE): 1 to 10 nM

Cc1cccc(-c2ccn(-c3nc(N4CCOCC4)c4nc(CN5CCC(N6CCC6)C(F)C5)sc4n3)n2)c1 (stereo not shown) [Ex. 47, 4-(2-((4-(azetidin-1-yl)-3-fluoropiperidin-1-yl)methyl)-5-(3-(m-tolyl)-1H-pyrazol-1-yl)thiazolo[5,4-d]pyrimidin-7-yl)morpholine]
IC50 (PIKFYVE): < 1 nM

Brc1ccn(-c2cc(N3CCOCC3)c3sc(CN4CCOCC4)cc3n2)n1 [Ex. 173, 4-(5-(3-Bromo-1H-pyrazol-1-yl)-2-(morpholinomethyl)thieno[3,2-b]pyridin-7-yl)morpholine]
inhibition at 0.005 µM (PIKFYVE; @ 5 nM): 8%

CS(=O)(=O)N1CCN(Cc2cc3nc(-n4ccc(-c5cccc(Br)c5)n4)nc(N4CCOCC4)c3s2)CC1 [Ex. 1, 4-(2-(3-(3-bromophenyl)-1H-pyrazol-1-yl)-6-((4-(methylsulfonyl)piperazin-1-yl)methyl)thieno[3,2-d]pyrimidin-4-yl)morpholine]
IC50 (PIKFYVE): 1 to 10 nM

Cc1cccc(-c2ccn(-c3nc(N4CCOCC4)c4sc(C(=O)N5CC[C@H](N(C)C)C5)cc4n3)n2)c1 [Ex. 24, (S)-(3-(dimethylamino)pyrrolidin-1-yl)(4-morpholino-2-(3-(m-tolyl)-1H-pyrazol-1-yl)thieno[3,2-d]pyrimidin-6-yl)methanone]
IC50 (PIKFYVE): < 1 nM

Cc1cccc(-c2ccn(-c3nc(N4CCOCC4)c4sc(C(C)N5CCC(N(C)C)CC5)cc4n3)n2)c1 (stereo not shown) [Ex. 17, N,N-dimethyl-1-(1-(4-morpholino-2-(3-(m-tolyl)-1H-pyrazol-1-yl)thieno[3,2-d]pyrimidin-6-yl)ethyl)piperidin-4-amine]
IC50 (PIKFYVE): < 1 nM

Cc1cccc(-c2ccn(-c3nc(N4CCOCC4)c4sc(CN5CCC(N(C)C)C(F)C5)c(C)c4n3)n2)c1 (stereo not shown) [Ex. 55, 3-fluoro-N,N-dimethyl-1-((7-methyl-4-morpholino-2-(3-(m-tolyl)-1H-pyrazol-1-yl)thieno[3,2-d]pyrimidin-6-yl)methyl)piperidin-4-amine]
IC50 (PIKFYVE): < 1 nM

Cc1cccc(-c2ccn(-c3nc(N4CC5CC4CO5)c4sc(CN5CCN(S(C)(=O)=O)CC5)cc4n3)n2)c1 (stereo not shown) [Ex. 73, 5-(6-((4-(methylsulfonyl)piperazin-1-yl)methyl)-2-(3-(m-tolyl)-1H-pyrazol-1-yl)thieno[3,2-d]pyrimidin-4-yl)-2-oxa-5-azabicyclo[2.2.1]heptane]
IC50 (PIKFYVE): 10 to 100 nM

COc1cccc(-c2ccn(-c3nc(N4CCOCC4)c4sc(CN5CCN(S(C)(=O)=O)CC5)cc4n3)n2)c1 [Ex. 3, 4-(2-(3-(3-methoxyphenyl)-1H-pyrazol-1-yl)-6-((4-(methylsulfonyl)piperazin-1-yl)methyl)thieno[3,2-d]pyrimidin-4-yl)morpholine]
IC50 (PIKFYVE): 1 to 10 nM

Cc1cccc(-c2ccn(-c3nc(N4CCOCC4)c4nc(-c5cnn(C)c5)[nH]c4n3)n2)c1 [Ex. 44, 4-(8-(1-methyl-1H-pyrazol-4-yl)-2-(3-(m-tolyl)-1H-pyrazol-1-yl)-9H-purin-6-yl)morpholine]
IC50 (PIKFYVE): < 1 nM

Cc1cccc(-c2ccn(-c3nc(N4CCOCC4)c4nc(CN5CCOCC5)[nH]c4n3)n2)c1 [Ex. 14, 4-((6-morpholino-2-(3-(m-tolyl)-1H-pyrazol-1-yl)-9H-purin-8-yl)methyl) morpholine]
IC50 (PIKFYVE): 1 to 10 nM
